According to patent US9695155B2, “Herbicidal substituted pyrimidinyloxy benzene compounds” (E. I. DU PONT DE NEMOURS AND COMPANY, priority 2013, dated 2017):

Legend:
[1] = test system: giant foxtail; experiment: Test A postemergence; type: in vivo, Setaria faberii
Procedure, shortened: (§1)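 Compounds in non-phytotoxic solvent with surfactant applied as soil spray preemergence, or postemergence to plants 2-10 cm at one- to two-leaf stage, in loam/sand. After approximately 10 days in greenhouse, injury rated visually versus untreated controls, 0 (no effect) to 100 (complete control).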

[2] = test system: Heteranthera limosa; experiment: Test B flooded paddy test; type: in vivo; settings: Flood, 250 g ai/ha; 0 to 100 scale where 0 is no effect and 100 is complete control
Procedure, shortened: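 Compound added straight to paddy water, with pots kept flooded 3 cm above soil, on plants grown to the 2-leaf stage. Visual scoring 0-100 (100 = complete control) against untreated controls after 13 to 15 greenhouse days.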

[3] = test system: galium; experiment: Test C postemergence; type: in vivo, Galium aparine; settings: for Galium plant response rating / Plant response rating, Galium: scale 0 to 100 (0 no effect, 100 complete control)
Procedure, shortened: (§2)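 Visual ratings on a 0–100 scale (100 = complete control) were made versus untreated controls after 13–15 greenhouse days. Chemicals in a surfactant-containing non-phytotoxic solvent were applied either preemergence to seeds in loam–sand soil or postemergence to 1- to 4-leaf plants 2–18 cm tall.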

[4] = test system: ragweed; experiment: Test A preemergence; type: in vivo, Ambrosia elatior; settings: for Plant response rating, Ragweed: 125 g ai/ha
Procedure, shortened: as §1

[5] = test system: giant foxtail; experiment: Test C preemergence; type: in vivo, Setaria faberii; settings: for Foxtail, Giant plant response rating: preemergence; for Plant response rating, Foxtail, Giant: Preemergence, 31 g ai/ha, scale 0 to 100, 0 no effect, 100 complete control
Procedure, shortened: as §2

[6] = test system: ragweed; experiment: Test C postemergence; type: in vivo, Ambrosia elatior
Procedure, shortened: as §2

[7] = test system: waterhemp; experiment: Test C preemergence; type: in vivo, Amaranthus rudis; settings: for Waterhemp plant response rating: preemergence
Procedure, shortened: as §2

[8] = test system: johnsongrass; experiment: Test C postemergence; type: in vivo, Sorghum halepense; settings: for Johnsongrass plant response rating / Plant response rating, Johnsongrass: scale 0 to 100 (0 no effect, 100 complete control)
Procedure, shortened: as §2

[9] = test system: corn; experiment: Test C preemergence; type: in vivo, Zea mays; settings: for Corn plant response rating: preemergence; for Plant response rating, Corn: Preemergence, 31 g ai/ha, scale 0 to 100, 0 no effect, 100 complete control
Procedure, shortened: as §2

[10] = test system: oilseed rape; experiment: Test C preemergence; type: in vivo, Brassica napus; settings: for Oilseed Rape plant response rating: preemergence
Procedure, shortened: as §2

[11] = 16 g ai/ha, postemergence, 0 is no effect, 100 is complete control
[12] = 31 g ai/ha, postemergence, visual rating, 13 to 15 days
[13] = 125 g ai/ha, postemergence, visual rating
[14] = 16 g ai/ha, scale 0 to 100 (0 no effect, 100 complete control)
[15] = 62 g ai/ha, scale 0 (no effect) to 100 (complete control)
[16] = 125 g ai/ha, scale 0 (no effect) to 100 (complete control)
[17] = 125 g ai/ha, postemergence, visual rating, scale 0 to 100 (0 no effect, 100 complete control)
[18] = Postemergence, 62 g ai/ha, scale 0 to 100 (0 no effect, 100 complete control)
[19] = 125 g ai/ha, 0 to 100 scale where 0 is no effect and 100 is complete control
[20] = 500 g ai/ha, 0 to 100 scale where 0 is no effect and 100 is complete control
[21] = 0 to 100 scale where 0 is no effect and 100 is complete control
[22] = 16 g ai/ha, postemergence, visual rating, 13 to 15 days
[23] = Postemergence, 31 g ai/ha, 13 to 15 days
[24] = Preemergence, 31 g ai/ha, scale 0 to 100, 0 no effect, 100 complete control

Compound	Plant response rating, Ducksalad [2]	Plant response rating (0 to 100), Galium [3, 11]	Plant response rating, Galium ([3]; Postemergence, 62 g ai/ha)	Foxtail, Giant plant response rating [5, 14]	Foxtail, Giant plant response rating [5, 15]	Foxtail, Giant plant response rating [5, 16]	Plant response rating, Foxtail, Giant [5]	Plant response rating, Ragweed [6, 18]	Waterhemp plant response rating [7, 14]	Waterhemp plant response rating [7, 15]	Waterhemp plant response rating [7, 16]	Plant response rating, Johnsongrass ([8]; Postemergence, 62 g ai/ha)	Corn plant response rating [9, 14]	Corn plant response rating [9, 15]	Corn plant response rating [9, 16]	Plant response rating, Corn [9]	Oilseed Rape plant response rating [10, 14]	Oilseed Rape plant response rating [10, 15]	Oilseed Rape plant response rating [10, 16]	Plant response rating, Foxtail, Giant [1, 20]	further results
FCc1cn(-c2c(F)cccc2Oc2ncc(Cl)cn2)nn1 [Compound 154]	80	60	80	5	85	100	70	100	100	100	100	0	5	5	10	0	98	100	100		Plant response rating, Foxtail, Giant ([1]; 1000 g ai/ha, 0 to 100 scale, 0 no effect, 100 complete control): 100; Galium plant response rating [3, 12]: 65; Plant response rating, Galium [3, 13]: 85; Ragweed plant response rating ([4]; 1000 g ai/ha, 0 to 100 scale, 0 no effect, 100 complete control, approx. 10 days): 100; Plant response rating (0 to 100), Ragweed [6, 11]: 35; Ragweed plant response rating ([6]; 31 g ai/ha, postemergence, visual rating, scale 0 to 100 (0 no effect, 100 complete control), 13 to 15 days): 45; Plant response rating, Ragweed [6, 17]: 90; Plant response rating (0 to 100), Johnsongrass [8, 11]: 0; Johnsongrass plant response rating [8, 12]: 0; Plant response rating, Johnsongrass [8, 13]: 5
Cc1cnc(Oc2cccc(C#N)c2-n2cc(I)cn2)nc1 [Compound 136]	70	20	55	0	80	100	5	45	0	75	100	0	5	5	15	0	0	50	100	90	Foxtail, Giant plant response rating [1, 19]: 30; Plant response rating, Galium [3, 13]: 60; Plant response rating, Ragweed [4, 21]: 80; Ragweed plant response rating [4, 20]: 100; Plant response rating (0 to 100), Ragweed [6, 11]: 25; Plant response rating, Ragweed [6, 17]: 45; Plant response rating (0 to 100), Johnsongrass [8, 11]: 0
N#Cc1cccc(Oc2ncc(Br)cn2)c1-n1cc(I)cn1 [Compound 88]	25		70	5	98	100	65	55	98	100	100	5	5	5	15	5	10	70	100	80	Plant response rating, Foxtail, Giant [1, 19]: 50; Galium plant response rating [3, 22]: 70; Plant response rating (0 to 100), Galium ([3]; 125 g ai/ha, postemergence): 95; Plant response rating, Galium [3, 23]: 80; Ragweed plant response rating ([4]; 500 g ai/ha, 0 to 100 scale, 0 no effect, 100 complete control, approx. 10 days): 60; Plant response rating (0 to 100), Ragweed ([6]; 125 g ai/ha, postemergence): 60; Plant response rating, Ragweed ([6]; Postemergence, 31 g ai/ha, scale 0 to 100 (0 no effect, 100 complete control), 13 to 15 days): 55; Plant response rating, Waterhemp [7, 24]: 100; Johnsongrass plant response rating [8, 22]: 0; Plant response rating (0 to 100), Johnsongrass ([8]; 125 g ai/ha, postemergence): 10; Plant response rating, Johnsongrass [8, 23]: 0; Plant response rating, Oilseed Rape [10, 24]: 100
COc1cnn(-c2c(C#N)cccc2Oc2ncc(Cl)cn2)c1 [Compound 137]	30			35	60	90	5		100	95	100		0	5	10	5	50	85	95	100	Foxtail, Giant plant response rating [1, 19]: 70; Plant response rating, Ragweed [4, 21]: 30; Ragweed plant response rating [4, 20]: 60
